Test results published in patent publication US4742045A, “Glycopeptide antibiotics” (SmithKline Beckman Corporation, priority 1986, dated 1988).

Tests used:
pH of aqueous solution = assay type: physicochemical; conditions: 100 mg/ml aqueous solution
Method: (§1) The solubility of the potassium salt is about 300 mg/ml in water.

[1] = assay type: physicochemical
Description: The invention includes within its scope pharmaceutical compositions containing at least one of the above-mentioned antibiotic compounds and a pharmaceutically acceptable carrier. The compositions may also contain other active antibacterial agents. The compositions may be made up in any pharmaceutical form appropriate for the route of administration in question. Such compositions are exemplified by solid compositions for oral administration, such as tablets, capsules, pills, powders and granules; liquid compositions for oral administration such as solutions, suspensions, syrups and elixirs; preparations for parenteral administration such as sterile solutions, suspensions or emulsions; and preparations for topical administration such as gels, creams, ointments or salves. […] In 40% prophylene glycol in water (V/V), the solubility of HPB4 free base is greater than about 200 mg/ml. […] The solubility of HPB4.K is about 300 mg/ml. The solubility of HPB4.2HCl is about 600 mg/ml.
as §1

CNC(C(=O)NC1C(=O)NC(CCSC)C(=O)NC2C(=O)NC3C(=O)NC(C(=O)NC(C(=O)[O-])c4cc(O)cc(O)c4-c4cc3ccc4O)C(OC3CC(N)C(O)C(C)O3)c3ccc(c(Cl)c3)Oc3cc2cc(c3O)Oc2ccc(cc2)C1O)c1ccc(O)cc1.[K+] (centres unmarked) [HPB4.K]
pH of aqueous solution (pH of aqueous solution): 9.29
solubility [1]: about 300 mg/ml
